Measured values published in EP0554004A2, “Cephem compounds and antibacterial agents” (KATAYAMA SEIYAKUSYO CO. Ltd., priority 1992, dated 1993).

Experiments:
A. calcoaceticos T59 = experiment: MIC against standard strains (Test Example 3); type: cell-based; settings: A. calcoaceticos T59 (Test Example 3); read-out: MIC
Method: (§1) By using each test strain cultured overnight at 37°C in a Muller-Hinton broth, there was prepared a bacterial solution with a bacterial cell population of 1 x 10^6 CFU/mi of the same bouillon. The bacterial solution was inoculated into the Muller-Hinton agar media each containing respectively one test agent and, after overnight incubation at 37°C, the minimum concentration that inhibited growth of the bacteria was determined and shown as MIC also in Table 1.
(§2) The minimum growth inhibitory concentration was determined for each of the 21 standard strains shown in Table 3, according to the same method as used in Test Example 1.
(§3) In the test, FMOX (flomoxef), CTM (cefotiam) and CEZ (cefazolin) were used as control agents.

A. faecalis ATCC3750 = experiment: MIC against standard strains (Test Example 3); type: cell-based; settings: Alcaligenes faecalis; A. faecalis ATCC3750 (Test Example 3); read-out: MIC
Method: as §1, §2, §3

B. subtilis ATCC6633 = experiment: MIC against standard strains (Test Example 3); type: cell-based; settings: Bacillus subtilis; B. subtilis ATCC6633 (Test Example 3); read-out: MIC
Method: as §1, §2, §3

C. freundii ATCC8090 = experiment: MIC against standard strains (Test Example 3); type: cell-based; settings: Citrobacter freundii; C. freundii ATCC8090 (Test Example 3); read-out: MIC
Method: as §1, §2, §3

E. cloacae ATCC13407 = experiment: MIC against standard strains (Test Example 3); type: cell-based; settings: Enterobacter cloacae; E. cloacae ATCC13407 (Test Example 3); read-out: MIC
Method: as §1, §2, §3

E. coli CSH2 (RE45) = experiment: MIC against standard strains (Test Example 3); type: cell-based; settings: Escherichia coli
Method: as §1, §2, §3

E. coli CSH2 (RK1) = experiment: MIC against standard strains (Test Example 3); type: cell-based; settings: Escherichia coli
Method: as §1, §2, §3

E. coli NIHJ JC-2 = experiment: MIC against standard strains (Test Example 3); type: cell-based; settings: Escherichia coli, NIHJJC2; E. coli NIHJ JC-2 (Test Example 3); read-out: MIC
Method: as §1, §2, §3

K. pneumoniae IFO3317 = experiment: MIC against standard strains (Test Example 3); type: cell-based; settings: Klebsiella pneumoniae; K. pneumoniae IFO3317 (Test Example 3); read-out: MIC
Method: as §1, §2, §3

K. pneumoniae No. 42 = experiment: MIC against standard strains (Test Example 3); type: cell-based; settings: Klebsiella pneumoniae; K. pneumoniae No. 42 (Test Example 3); read-out: MIC
Method: as §1, §2, §3

M. Morganii IFO3848 = experiment: MIC against standard strains (Test Example 3); type: cell-based; settings: Morganella morganii; M. Morganii IFO3848 (Test Example 3); read-out: MIC
Method: as §1, §2, §3

M. luteus ATCC 9341 = experiment: MIC against standard strains (Test Example 3); type: cell-based; settings: Micrococcus luteus, ATCC9341; M. luteus ATCC 9341 (Test Example 3); read-out: MIC
Method: as §1, §2, §3

P. aeruginosa NCTC10490 = experiment: MIC against standard strains (Test Example 3); type: cell-based; settings: Pseudomonas aeruginosa; P. aeruginosa NCTC10490 (Test Example 3); read-out: MIC
Method: as §1, §2, §3

P. mirabilis IFO3849 = experiment: MIC against standard strains (Test Example 3); type: cell-based; settings: Proteus mirabilis; P. mirabilis IFO3849 (Test Example 3); read-out: MIC
Method: as §1, §2, §3

P. vulugaris OX-19 = experiment: MIC against standard strains (Test Example 3); type: cell-based; settings: P. vulugaris OX-19 (Test Example 3); read-out: MIC
Method: as §1, §2, §3

S. aureus 167 = experiment: MIC against standard strains (Test Example 3); type: cell-based; settings: Staphylococcus aureus; S. aureus 167 (MRSA) (Test Example 3); read-out: MIC
Method: as §1, §2, §3

S. aureus 195 = experiment: MIC against standard strains (Test Example 3); type: cell-based; settings: Staphylococcus aureus; S. aureus 195 (MRSA) (Test Example 3); read-out: MIC
Method: as §1, §2, §3

S. aureus 209p JC-1 = experiment: MIC against standard strains (Test Example 3); type: cell-based; settings: Staphylococcus aureus; S. aureus 209p JC-1 (Test Example 3); read-out: MIC
Method: as §1, §2, §3

S. aureus Smith = experiment: MIC against standard strains (Test Example 3); type: cell-based; settings: Staphylococcus aureus; S. aureus Smith (Test Example 3); read-out: MIC
Method: as §1, §2, §3

S. epidemidis IAM1296 = experiment: MIC against standard strains (Test Example 3); type: cell-based; settings: S. epidemidis IAM1296 (Test Example 3); read-out: MIC
Method: as §1, §2, §3

S. marcescens IAM1184 = experiment: MIC against standard strains (Test Example 3); type: cell-based; settings: Serratia marcescens; S. marcescens IAM1184 (Test Example 3); read-out: MIC
Method: as §1, §2, §3

clinically isolated MRSA = experiment: Antibacterial potency against clinically isolated MRSA (Test Example 4); type: cell-based, methicillin-resistant Staphylococcus aureus; settings: Staphylococcus aureus, 52 strains of clinically isolated MRSA; for MIC50: concentration inhibiting growth of 50% of the strains (Test Example 4), read-out: MIC50; for MIC90: concentration inhibiting growth of 90% of the strains (Test Example 4), read-out: MIC90
Method: 52 strains of clinically isolated MRSA were used, and MIC was determined for each of the strains according to the standard method of the Japan Chemotherapical Society as in Test Example 1. The minimum growth inhibitory concentration which inhibited growth of 50% of the strains tested was expressed as MIC50 (µg/ml), and the minimum growth inhibitory concentration which inhibited growth of 90% of the strains was expressed as MIC90 (µg/ml).
MIC 50 and MIC 90 were determined for each of the 52 strains of clinically isolated MRSA according to the same method as used in Test Example 2.
VCM (vancomycin) was used as control agent.

Row | SMILES | MIC (A. calcoaceticos T59) [µg/mL] | MIC (A. faecalis ATCC3750) [µg/mL] | MIC (B. subtilis ATCC6633) [µg/mL] | MIC (C. freundii ATCC8090) [µg/mL] | MIC (E. cloacae ATCC13407) [µg/mL] | MIC (E. coli CSH2 (RE45)) [µg/mL] | MIC (E. coli CSH2 (RK1)) [µg/mL] | MIC (E. coli NIHJ JC-2) [µg/mL] | MIC (K. pneumoniae IFO3317) [µg/mL] | MIC (K. pneumoniae No. 42) [µg/mL] | MIC (M. Morganii IFO3848) [µg/mL] | MIC (M. luteus ATCC 9341) [µg/mL] | MIC (P. aeruginosa NCTC10490) [µg/mL] | MIC (P. mirabilis IFO3849) [µg/mL] | MIC (P. vulugaris OX-19) [µg/mL] | MIC (S. aureus 167) [µg/mL] | MIC (S. aureus 195) [µg/mL] | MIC (S. aureus 209p JC-1) [µg/mL] | MIC (S. aureus Smith) [µg/mL] | MIC (S. epidemidis IAM1296) [µg/mL] | other results
1 | Cc1nc(-c2ccc[n+](CC3=C(C(=O)[O-])N4C(=O)[C@@H](NC(=O)/C(=N\O)c5csc(N)n5)[C@H]4SC3)c2)cs1 [Compound (11), 7β-[2-(2-aminothiazol-4-yl)-2-syn-hydroxyiminoacetamido]-3-[[3-(2-methylthiazol-4-yl)-I-pyridinio]methyl]-3-cephem-4-carboxylic acid chloride] | 25 | 3.13 | 0.2 | 0.39 | 3.13 | 0.39 | 0.78 | 0.39 | 0.2 | 0.78 | 0.1 | 0.05 | 6.25 | 0.78 | 0.2 | 3.13 | 1.56 | 0.2 | 0.39 | 0.1 | MIC (S. marcescens IAM1184): 0.39 µg/mL; MIC50 (clinically isolated MRSA): 1.85 µg/mL; MIC90 (clinically isolated MRSA): 3.04 µg/mL
2 | CNC(=O)c1ccc[n+](CC2=C(C(=O)[O-])N3C(=O)[C@@H](NC(=O)/C(=N\O)c4csc(N)n4)[C@H]3SC2)c1 [Compound (6), 7β-[2-(2-aminothiazol-4-I)-2-syn-hydroxyiminoacetamido]-3-[(3-N-methylcarbamoyl)-1-pyridinio)methyl]-3-cephem-4-carboxylic acid chloride] | 12.5 | 3.13 | 0.78 | 0.39 | 1.56 | 0.78 | 1.56 | 0.39 | 0.39 | 0.78 | 0.2 | 0.1 | 3.13 | 0.39 | 0.78 | 12.5 | 3.13 | 0.39 | 0.78 | 0.2 | MIC (S. marcescens IAM1184): 0.39 µg/mL; MIC50 (clinically isolated MRSA): 2.15 µg/mL; MIC90 (clinically isolated MRSA): 7.18 µg/mL
3 | CNc1nc(-c2cc[n+](CC3=C(C(=O)[O-])N4C(=O)[C@@H](NC(=O)/C(=N\O)c5csc(N)n5)[C@H]4SC3)cc2)cs1 [Compound (12), 7β-[2-(2-aminothiazol-4-yl)-2-syn-hydroxyiminoacetamido]-3-[[4-(2-methylaminothiazol-4-yl)-1-pyridinio]methyl]-3-cephem-4-carboxylic acid chloride] | 50 | 1.56 | 0.2 | 0.39 | 1.56 | 0.2 | 0.39 | 0.2 | 0.1 | 0.78 | 0.05 | 0.05 | 12.5 | 0.78 | 0.1 | 5.25 | 3.13 | 0.39 | 0.39 | 0.2 | MIC (S. marcescens IAM1184): 0.78 µg/mL; MIC50 (clinically isolated MRSA): 1.86 µg/mL; MIC90 (clinically isolated MRSA): 4.61 µg/mL
4 | Cc1nc(-c2cc[n+](CC3=C(C(=O)[O-])N4C(=O)[C@@H](NC(=O)/C(=N\O)c5csc(N)n5)[C@H]4SC3)cc2)cs1 [Compound (13), 7β-[2-(2-aminothiazol-4-yl)-2-syn-hydroxyiminoacetamido]-3-[[4-(2-methylthiazol-4-yl)-1-pyridinio]methyl]-3-cephem-4-carboxylic acid chloride] | 50 | 1.56 | 0.2 | 0.2 | 0.78 | 0.2 | 0.2 | 0.2 | 0.1 | 0.78 | 0.05 | 0.05 | 12.5 | 0.39 | 0.2 | 6.25 | 3.13 | 0.2 | 0.39 | 0.2 | MIC (S. marcescens IAM1184): 0.39 µg/mL; MIC50 (clinically isolated MRSA): 2.21 µg/mL; MIC90 (clinically isolated MRSA): 5.51 µg/mL
